The record followed here is BindingDB's records for doi:10.1021/jm00167a014 (Merrell Dow Research Institute, 1990).

pKi: −log10 of the molar value.

Broadly, the pKi is −log10 of the Ki, conventionally taken in molar units.

The target of this assay is Peroxisomal N(1)-acetyl-spermine/spermidine oxidase (Rattus norvegicus). Nature of the assay: Tested for in vitro binding affinity against polyamine oxidase after intraperitoneal administration in the rat liver.

`C=C=CCNCCCNCCCNCC=C=C`: the negative logarithm of the Ki (pKi) was 5.52. `C=C=CCNCCCNCCCCCCCCNCCCNCC=C=C` gave a negative-log Ki (pKi) of 5.60.
